Where “and” joins values, the source holds several entries; their conditions need not be identical. Identical values can stand only once. Marks after values point to notes of the source that are not given here.
Assays:
[1] = tested on: human primary lung fibroblasts; experiment: Cell proliferation (BrdU incorporation, nucleus counts) with compound washout; type: cell-based; conditions: for cell proliferation (BRdU incorporation and nucleus counts): pyruvate-restricted conditions, 24-hours compound treatment; for recovery of cell proliferation after compound washout (BrdU incorporation and nucleus counts): 24-hours incubation in pyruvate-free media, highest tested concentration
Protocol: Human primary lung fibroblasts were plated at a concentration of 5 × 10^3 cells/well in 96well plates in 100 µL DMEM complete media (5.5 mM glucose, 2 mM L-glutamine, and 1 mM pyruvate) containing 1% penicillin-streptomycin and 10% heat-inactivated foetal bovine serum. Cells were incubated overnight at 37°C / 5% CO2 to allow cell attachment. On the day of the treatment, cell culture medium was removed, and the cells were washed three times with Gibco™ DMEM, no glucose, no L-glutamine, no pyruvate, no phenol red + 1% penicillin-streptomycin and 10% heat inactivated foetal bovine serum (termed `basal' culture medium). Fresh cell culture media (without pyruvate) was added to the wells. Test compounds were prepared as 10x final concentration solutions in pyruvate-free medium. Following 24-hours compound treatment (in 5% CO2,37°C cell incubator), spent medium was removed from all wells and were thoroughly washed thrice with basal cell culture medium. For washout assay condition, 100 µL of pyruvate-free media was added per well. For No Washout, 90 µL of pyruvate-free media and 10 µL of 10x final assay concentration prepared test agents (or assay media) were added per well. Recovery of cell proliferation was measured after 24-hours incubation at 37°C / 5% CO2 with either pyruvate-free media (without re-addition of the compound) or re-addition of compounds in pyruvate-free media.
To assess nucleus counts, formaldehyde was added to a final concentration of 4%. Following a further 20-minute incubation at room temperature, the medium was aspirated, the cells were washed twice with 200 µL TBS-T (1x TBS + 0.1% Tween 20) and the nuclei were stained with 50 µL of PBS containing 10% heat inactivated foetal bovine serum, 0.1% Triton-X-100 and 2 µM Hoechst dye. Following a 30-minute incubation at room temperature, protected from light, the cells were washed twice with TBS-T, and cells were counted in 100 µL PBS solution using an ImageXpress Pico system with stitched plate acquisition (4x magnification), DAPI channel (50 ms exposure, -3 digital confocal setting).
When cells grow and divide (termed proliferation), cells progress through the cell cycle, a tightly regulated process that consists of two main activities: DNA replication and mitosis/cell division. As a method of accurately quantifying cellular proliferation rate, the pyrimidine analogue, BrdU can be utilised to measure DNA replication. BrdU can be incorporated into the newly synthesized DNA in place of thymidine. Following incubation of proliferating cells with BrdU for 20 hours, labelling solution was removed thoroughly, and cells were fixed with 70 µL of fix solution for 30 min at room temperature. […] Eu-fluorescence was measured in a time-resolved manner using the PHERAstar FSX (Ex337/ Em620 nm). […]

[2] = tested on: bleomycin-induced lung fibrosis; experiment: Mouse bleomycin-induced lung fibrosis; type: in vivo, C57BI/6 mice; conditions: scale 0-5, Dose (mg/kg/day): Nintedanib 30 b.d., HMC-C-01-A 10 q.d., mean ± s.e.m.
Protocol: Eight- to ten-week-old female C57BI/6 mice were used for all procedures. Animals were housed in groups of 4 and were maintained at 22°C ± 3°C on a 12-hour light/dark cycle with food and water ad libitum. Bleomycin was prepared by dissolving in saline at 1.5 mg/mL. All mice were administered intranasally with 3 mg/kg bleomycin. Seven days after bleomycin administration, vehicle control, nintedanib or MCIM compound administration was initiated. Nintedanib was administered twice daily (b.d.) by oral gavage at a total daily dose of 30 mg/kg/day for 14 days. MCIM compounds were administered once daily (q.d.) by oral gavage at a total daily dose of either 10 or 20 mg/kg/day for 14 days.
On the 14th day, lungs were collected after perfusion. The left lung lobe was assessed for fibrosis by measuring total lung hydroxyproline levels. The right lung lobes were fixed and sectioned for histopathology. […]
The data were analysed by generating an average histopathology score across each treatment group. […]

[3] = tested on: collagen-induced arthritis; experiment: Mouse collagen-induced arthritis; type: in vivo, DBA/1j mice
[4] = tested on: human primary myeloid cells (osteoclasts); experiment: Mitochondrial phenotype assessment in osteoclasts (electron microscopy); type: cell-based; conditions: rotenone 100 nM; Figure 3B
Protocol: Peripheral blood mononuclear cells were isolated from human whole blood by differential centrifugation over Ficoll-Paque PLUS (GE Healthcare Biosciences). CD14+ monocytes were purified from the freshly isolated PBMCs using the CD14+ selection kit (StemCells. UK) by positive magnetic selection according to manufacturer's instructions . Cells were differentiated to osteoclasts by adding 1×10^6 ml-1 cells in complete minimum essential medium-alpha supplemented with 10% heat inactivated fetal bovine serum (FBS, Invitrogen,UK),2mM glutamine (Invitrogen,UK) 20U ml-1 penicillin, 100ug/ml streptomycin (Sigma ALdrich, UK) along with 25ng ml-1 recombinant human M-CSF (Peprotech, UK) and 25 ng ml-1 RANKL for 6 days. On th^e 6th day, the cells were treated with test compound (final concentration 0.03-1 uM, 0,05 % DMSO) or a control, rotenone (100 nM).
Adherent cells were fixed in 2.5% glutaraldehyde in 0.1 M cacodylate buffer, pH 7.4, for 1 h, post fixed with 1% osmium tetroxide (Electron Microscopy Science), dehydrated in a graded series of ethanol, and embedded in Epon (Electron Microscopy Science). The embedded samples were sectioned by an ultramicrotome (Ultracut E, Richert-Jung, Leica Microsystem). Thin sections (90 nm thick) were collected on 300 mesh nickel grids and stained with uranyl acetate (Electron Microscopy Science) and lead citrate. […]

For `Cc1nc(-c2nc(-c3ccc(OC(F)(F)F)cc3)no2)nn1Cc1cccc(N2CCC(S(C)(=O)=O)CC2)c1` [IACS-010759], the “cell proliferation (BRdU incorporation and nucleus counts)” value [1] was “reduce cell proliferation” and the “recovery of cell proliferation after compound washout (BrdU incorporation and nucleus counts)” value [1] was “no recovery”.

In the case of `COC(=O)c1ccc2c(c1)NC(=O)/C2=C(\Nc1ccc(N(C)C(=O)CN2CCN(C)CC2)cc1)c1ccccc1` [Nintedanib], the “AT2 cell number Treatment value” ([2]; hyperplasia score, ABD900 20 q.d., two studies) is reported as 1.6 ± 0.2 and 1.1 ± 0.1 and the “AT2 cell size Treatment value” ([2]; hypertrophy score) is reported as 1.6 ± 0.2.

With `C[C@@H]1CCN(C(=O)CC#N)C[C@@H]1N(C)c1ncnc2[nH]ccc12` [Tofacitinib] the “appearance of the osteoid/new bone formed” value ([3]; 10 mg/kg/day MCIM compound, 3 mg/kg/day etanercept, Figure 23, tofacitinib data not shown) was “reactive and sporadic deposits”, the “Bone resorption (sum) Treatment value” ([3]; once daily for 14 days, Dose (mg/kg/day) as printed: Etanercept 3, HMC-C-01-A 3, all others 10, sum from all limbs per animal per group) was 48** and the “Bone formation (sum) Treatment value” ([3]; osteoid zones, once daily for 14 days, Dose (mg/kg/day) as printed: Etanercept 3, HMC-C-01-A 3, all others 10, sum from all limbs per animal per group) was 0.

For `C=C(C)[C@H]1Cc2c(ccc3c2O[C@@H]2COc4cc(OC)c(OC)cc4[C@@H]2C3=O)O1` [rotenone], the “cell proliferation (BRdU incorporation and nucleus counts)” value [1] was “reduce cell proliferation”, the “recovery of cell proliferation after compound washout (BrdU incorporation and nucleus counts)” value [1] was “no recovery” and the mitochondrial morphology [4] was “increased numbers of abnormal mitochondria which were more rounded and had condensed cristae with evidence of fragmentation”.

Source: EP4431090A1, “SOLFONAMIDES ACTING AS MITOCHONDRIAL COMPLEX I MODULATOR COMPOUNDS” (Istesso 1 Limited, priority 2023, dated 2024)
